Results taken from US20250195498A1, “INHIBITOR OF CELLULAR PURINE NUCLEOTIDE SALVAGE PATHWAY ENZYME FOR USE IN THE TREATMENT AND/OR PREVENTION OF HELICOBACTER PYLORI INFECTION AND/OR DISEASE ASSOCIATED WITH SUCH INFECTION AND PHARMACEUTICAL COMPOSITION COMPRISING THE SAME” (UNIWERSYTET WARSZAWSKI, priority 2022, published 2025).
≈ marks a conversion by molar mass, not a printed value. Where “and” joins values, the source holds several entries; their conditions need not be identical. Identical values can stand only once. Like-named read-outs stand apart in the source and are kept apart here.

Tests used:
Assay type in all cases: cell-based, Helicobacter pylori
H. pylori strain P12 = assay: Growth curve method / MIC, strain P12; conditions: Helicobacter pylori
Procedure: (§1) The representative PNP inhibitor from H. pylori included in this study was immucillin A. The experiment was conducted using the growth curve method (two-fold serial dilutions in liquid medium). The tested H. pylori strains were cultured in Petri dishes with BHI solid medium supplemented with 10% FBS and 1% H. pylori Selective Supplement antibiotic kit, in anaerostats under microaerophilic conditions (5% 02, 10% CO2, 85% N2) at 37° C. for 3 days. Liquid culture of H. pylori was conducted overnight with shaking at 37° C. under microaerophilic conditions in BHI medium supplemented with 10% FBS and 1% H. pylori Selective Supplement antibiotic kit. Subsequently, for the essential experiment of determining the minimum inhibitory concentration (MIC), double strengthened liquid BHI medium was prepared, that is, supplemented with 20% FBS and a 2% set of H. pylori Selective Supplement antibiotics.
(§2) Bacterial proliferation inhibition experiments were carried out in 24-deep-well 2 ml flat-bottomed plates at a solution volume per well of 0.5 ml. In a single well, double strengthened (relative to the concentration planned for testing) solutions of the test inhibitor and double strengthened liquid BHI medium inoculated with H. pylori (10^4-10^5 CFU/ml in the final volume in the well, corresponding to the optical density of the culture OD600=0.05) were mixed together in a 1:1 ratio.
(§3) Kanamycin at a concentration of 25 μg/ml (Irie et al., 1997) was used as a positive control, while Mili-Q deionized water and BHI medium not inoculated with bacteria were used as negative controls. Plates were shaken at 37° C., under microaerophilic conditions. […] After 24 hours, the OD600 of samples containing the negative control, i.e. with Mili-Q deionized water, was about 1.2-1.4, corresponding to a bacterial concentration of about […].
(§4) In addition, the method proposed by Knezevic et al. (2018) was used to check whether the observed OD600 was from live bacterial cells. For this purpose, an equal volume of Christensen's double strength urea broth (that is, containing twice the concentration of all components) was added to the wells after incubation, and the plates were additionally incubated for 4 hours in an oxygen atmosphere at 37° C. During incubation, in wells with urease produced by live bacteria, urea is converted to ammonia and carbon dioxide, changing the pH of the solution and thus the colour of the phenol red indicator contained in the medium (from orange to purple).
(§5) All experiments were performed in triplicate.
Inhibition by PLP and its metabolic precursors of the growth of H. pylori strains: 26695, N6 and P12 in culture was investigated using the growth curve method as described in Example 3. From these experiments, the minimum inhibitory concentration was determined as the lowest concentration of a compound that inhibits the visible growth of the bacteria, compared to growth in control samples without the tested compounds. All experiments were carried out in triplicate.

[1] = test system: H. pylori strain M92 (CLR resistant); assay: Growth curve method / MIC, resistant strain M92; conditions: Helicobacter pylori, strain M92, CLR resistant
Procedure: as §1, §2, §3, §4, §5
(§6) The antibacterial activity of two compounds, mefloquine (in the form of hydrochloride) and quinine, described in the literature as potent in vitro inhibitors of the PNP enzyme from Plasmodium falciparum (Dziekan et al., 2019), was tested. Using a two-fold serial dilution method in liquid medium (as described in Example 3), the MIC values for mefloquine and quinine were determined against clinical H. pylori strains resistant to MTZ, CLR and MTZ+CLR (M26, M91, M92 and M93), as well as the reference H. pylori strain 26695. Four clinical H. pylori strains isolated from adults, from primary infections (the subjects had never previously been treated against H. pylori infection) were tested. These strains come from the collection of the Department of Microbiology of the Medical University of Wroclaw and were obtained due to collaboration with Prof. Grażyna Gościniak, MD, PhD. The tested compounds belong to organic substances and are soluble in DMSO. The maximum tested concentration of quinine in H. pylori culture was 0.56 mM, and that of mefloquine was 2.25 mM. […] On each occasion, the effect of DMSO alone on the growth of the H. pylori strains tested was also checked. […] Kanamycin was used as a positive control and Mili-Q deionised water as a negative control. All experiments were carried out in triplicate. […]

[2] = test system: H. pylori strain M93 (MTZ resistant); assay: Growth curve method / MIC, resistant strain M93; conditions: Helicobacter pylori, strain M93, MTZ resistant
Procedure: as §1, §2, §3, §4, §5, §6

SMILES: Cc1ncc(CO)c(C=O)c1O.Cl [PI-h, pyridoxal hydrochloride]
- MIC (H. pylori strain P12; P12, read-out: MIC (Table 7)): 2.5 µM
- MIC (H. pylori strain P12; strain P12, read-out: MIC): 509 µg/mL and 2500 µM
- MIC ([1]; read-out: MIC): 509 µg/mL and 2500 µM
- MIC ([1]; read-out: MIC (Table 7)): 2.5 µM
- MIC ([2]; read-out: MIC): 255 µg/mL and 1250 µM
- MIC ([2]; read-out: MIC (Table 7)): 1.25 µM

SMILES: Cc1ncc(COP(=O)(O)O)c(C=O)c1O [PLP, pyridoxal 5′-phosphate]
- MIC (H. pylori strain P12; P12, read-out: MIC (Table 7)): 2.5 µM (≈ 0.618 µg/mL)
- MIC (H. pylori strain P12; strain P12, read-out: MIC): 618 µg/mL and 2500 µM
- MIC ([1]; read-out: MIC): 309 to 618 µg/mL
- MIC ([1]; read-out: MIC (Table 7)): 1.25 to 2.5 µM
- MIC ([2]; read-out: MIC): 309 µg/mL and 1250 µM
- MIC ([2]; read-out: MIC (Table 7)): 1.25 µM (≈ 0.309 µg/mL)
